Measured values reported in patent US11458123B2 (Arvinas, Inc., priority 2016, dated 2022).

test system: tau protein; experiment: Tau protein in vitro degradation assay (Western blot, Tau-13 antibody); assay type: cell-based, human; conditions: SK-N-SH cells; 72 hours of incubation; tested at 300 nM, 100 nM, 33 nM and 11 nM; Western blot, Tau-13 antibody
In short: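 SK-N-SH cells, seeded ≥18 h beforehand, were incubated 72 h with tau PROTACs at 1000, 300 and 100 nM or at 300, 100, 33 and 11 nM. Lysates in protease-inhibitor buffer were resolved by SDS-PAGE; tau quantified by Western blot with Tau-13 antibody recognising all human tau forms.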

Row | Compound | Degradation activity (tau protein remaining; highest amount of degradation observed at any dosage)
1 | O=C1CCC(N2C(=O)c3ccc(OCC#Cc4ccc(O[C@H]5C[C@@H](Oc6ccc(-c7ccc8c(c7)[nH]c7ccncc78)cn6)C5)cn4)cc3C2=O)C(=O)N1 (stereo partly drawn) [Compound 183, 5-((3-(5-((1s,3 s)-3-((5-(5H-pyrido[4,3-b]indol-7-yl)pyridin-2-yl)oxy)cyclobutoxy)pyridin-2-yl)prop-2-yn-1-yl)oxy)-2-(2,6-dioxopiperidin-3-yl)isoindoline-1,3-dione] | A (≤50% tau protein remaining after 72 hours of incubation with the test compound)
2 | Cn1c2ccncc2c2ccc(-c3ccc(OC4CN(C(=O)C56CC(CCCCCCCOc7ccc8c(c7)C(=O)N(C7CCC(=O)NC7=O)C8=O)(C5)C6)C4)nc3)cc21 (stereo not drawn) [Compound 184, 2-(2,6-dioxopiperidin-3-yl)-5-((7-(3-(3-((5-(5-methyl-5H-pyrido[4,3-b]indol-7-yl)pyridin-2-yl)oxy)azetidine-1-carbonyl)bicyclo[1.1.1]pentan-1-yl)heptyl)oxy)isoindoline-1,3-dione] | A (≤50% tau protein remaining after 72 hours of incubation with the test compound)
3 | Cc1ncsc1-c1ccc(CNC(=O)[C@@H]2C[C@@H](O)CN2C(=O)[C@H](C(C)C)N2Cc3ccccc3C2=O)c(OCCOc2ccc(-c3ccc4c(c3)[nH]c3ccncc34)cn2)c1 [Compound 185, (2S,4R)—N-(2-(2-((5-(5H-pyrido[4,3-b]indol-7-yl)pyridin-2-yl)oxy)ethoxy)-4-(4-methylthiazol-5-yl)benzyl)-4-hydroxy-1-((S)-3-methyl-2-(1-oxoisoindolin-2-yl)butanoyl)pyrrolidine-2-carboxamide] | C (>80% tau protein remaining after 72 hours of incubation with the test compound)
4 | Cc1ncsc1-c1ccc(CNC(=O)[C@@H]2C[C@@H](O)CN2C(=O)[C@H](C(C)C)N2Cc3ccccc3C2=O)c(OCCOCCOc2ccc(-c3ccc4c(c3)[nH]c3ccncc34)cn2)c1 [Compound 186, (2S,4R)—N-(2-(2-(2-((5-(5H-pyrido[4,3-b]indol-7-yl)pyridin-2-yl)oxy)ethoxy)ethoxy)-4-(4-methylthiazol-5-yl)benzyl)-4-hydroxy-1-((S)-3-methyl-2-(1-oxoisoindolin-2-yl)butanoyl)pyrrolidine-2-carboxamide] | B (≤80% and >50% tau protein remaining after 72 hours of incubation with the test compound)
5 | Cc1ncsc1-c1ccc(CNC(=O)[C@@H]2C[C@@H](O)CN2C(=O)[C@H](C(C)C)N2Cc3ccccc3C2=O)c(OCCOCCOCCOc2ccc(-c3ccc4c(c3)[nH]c3ccncc34)cn2)c1 [Compound 187, (2S,4R)—N-(2-(2-(2-(2-((5-(5H-pyrido[4,3-b]indol-7-yl)pyridin-2-yl)oxy)ethoxy)ethoxy)ethoxy)-4-(4-methylthiazol-5-yl)benzyl)-4-hydroxy-1-((S)-3-methyl-2-(1-oxoisoindolin-2-yl)butanoyl)pyrrolidine-2-carboxamide] | C (>80% tau protein remaining after 72 hours of incubation with the test compound)
6 | O=C1CCC(N2C(=O)c3ccc(OCCOCC#Cc4ccc(O[C@H]5C[C@H](Oc6ccc(-c7ccc8c(c7)[nH]c7ccncc78)cn6)C5)cc4)cc3C2=O)C(=O)N1 (stereo partly drawn) [Compound 188, 5-(2-((3-(4-((1r,3r)-3-((5-(5H-pyrido[4,3-b]indol-7-yl)pyridin-2-yl)oxy)cyclobutoxy)phenyl)prop-2-yn-1-yl)oxy)ethoxy)-2-(2,6-dioxopiperidin-3-yl)isoindoline-1,3-dione] | B (≤80% and >50% tau protein remaining after 72 hours of incubation with the test compound)
